Where a SMILES comes first, the peptide text is derived from it. The star is where a group is joined. 5FAM = O=C1OC2(c3ccc(O)cc3Oc3cc(O)ccc32)c2ccc(C(=O)*)cc21
Tests used:
MBP-SUFU-FL [1] = target: T1, MBP-SUFU-FL (Homo sapiens, UniProt Q9UMX1); assay: HDX protection of MBP-SUFU-FL by GLI peptides; format: binding
T1 construct: containing residues 32–483 of human SUFU and a C-terminal hexahistidine tag; hexahistidine tag (C); made in house; host or cells: Escherichia coli JM109 (DE3)
Protocol: To compare amide HDX kinetics between MBP-SUFU-FL and MBP-SUFU-Δ, 4 µl of each protein (both at 11 mg ml^−1 in 50 mM Na HEPES pH 7.0, 50 mM NaCl, 5 mM β-mercaptoethanol, 1.5 mM maltose) was mixed with 13 µl deuterated buffer with the same ionic composition as the protein sample. For MBP-SUFU-FL–Gli3p interaction experiments, 45 µl MBP-SUFU-FL (11 mg ml^−1) was mixed with 5 µl Gli3p (6 mM; a 5.5-fold excess) and incubated for 1 h. In the latter case, exchange was initiated by mixing 4 µl MBP-SUFU-FL–Gli3p with 13 µl deuterated buffer with the same ionic composition as the sample. Each reaction was stopped by adding 9 µl quenching solution (4 M urea, 50 mM TCEP, 1% TFA) and flash-freezing in liquid N2. Deuteration reactions were incubated for 60, 300, 600 and 1800 s for the MBP-SUFU-FL and MBP-SUFU-Δ experiments and 300, 600 and 1800 s for the MBP-SUFU-FL–Gli3p interaction experiments (at 4°C, in triplicate). A 24 h incubation was used as a fully deuterated sample for back-exchange correction.
Samples were analyzed in a semi-automated HDX-MS system (Biomotif AB, Sweden) in which manually injected samples were automatically digested, cleaned and separated at 1.0°C. […]

MBP-SUFU-FL [2] = target: T1, MBP-SUFU-FL; assay: Microscale thermophoresis with FAM-GLI1p, MBP-SUFU-FL; settings: binding to MBP-SUFU-FL; 50 nM FAM-GLI1p
Protocol: (§1) A 5-FAM-labelled peptide (FAM-GLI1p) comprising residues 115–131 of GLI1 (Supplementary Table S1b) was synthesized by Pepceuticals Ltd. A titration series of each recombinant protein was prepared by serial 1:1 dilutions in MST buffer (50 mM Tris–HCl pH 7.6, 150 mM NaCl, 10 mM MgCl2, 0.05% Tween-20) and mixed in a 1:1 ratio with FAM-GLI1p to give final concentrations of 50 nM FAM-GLI1p with MBP-SUFU constructs in the ranges 14.2–29 070 and 54–110 500 nM. Reactions were aspirated into glass capillaries and the thermophoretic movement of FAM-GLI1p was monitored using a Monolith NT.115 instrument (NanoTemper Technologies; Wienken et al., 2010[▶]), with a laser on for 30 s and off for 5 s and a laser power/voltage of 20% for MBP-SUFU-FL and the MBP-SUFU-FL mutants, 40% for MBP-SUFU-Δ and 80% for MBP-SUFU-SH. Fluorescence was measured before laser heating (F Cold) and after 30 s of laser-on time (F Hot). The normalized fluorescence F Hot/F Cold reflects the concentration ratio of labelled molecules. F Hot/F Cold was plotted directly and multiplied by a factor of […], yielding a relative change in fluorescence per thousand. K d was calculated from three independent thermophoresis measurements using NanoTemper software (NanoTemper Technologies).

MBP-SUFU-Δ = target: T2, MBP-SUFU-Δ (Homo sapiens, UniProt Q9UMX1, DEL285-359/L360P/P281R/P282G/R280S/S279P); assay: Microscale thermophoresis with FAM-GLI1p, MBP-SUFU-Δ; settings: binding to MBP-SUFU-Δ; 50 nM FAM-GLI1p
T2 construct: subcloning different SUFU32–483 variants into vector pLJMBP4c; His tag (as in MBP-SUFU-FL; purified on HisTrap) (C); made in house; host or cells: Escherichia coli JM109 (DE3)
Protocol: as §1

MBP-SUFU-SH = assay: Microscale thermophoresis with FAM-GLI1p, MBP-SUFU-SH; set-up: species or system human; settings: binding to MBP-SUFU-SH; 50 nM FAM-GLI1p
Protocol: as §1

[3] = tested on: Hh pathway, Sufu −/− MEFs with SUFU-FL; assay: Hh pathway reactivation in Sufu −/− MEFs expressing SUFU-FL; format: cell-based, mouse; settings: 48–72 h, luciferase
Protocol: (§2) Sufu ^−/− mouse embryonic fibroblast (MEF) cells (Svärd et al., 2006[▶]) were transfected with a mixture of p8x3′Gli-BS LucII or p8x3′Gli-mBS LucII reporter constructs (Sasaki et al., 1997[▶]; generous gifts from Hiroshi Sasaki) together with pRL-SV40 (Promega) internal control using Lipofectamine LTX with Plus reagent (Invitrogen) according to the manufacturer’s instructions. Following transfection, Sufu ^−/− MEF cells were grown until the culture reached confluency (24–48 h) and the cells were then switched to low-serum medium (0.5% FBS) with 100–200 nM SAG (kindly provided by Jan Bergman, Karolinska Institutet), 10 µM purmorphamine (Calbiochem) or Shh conditioned medium (1:4) and grown for an additional 48–72 h. Cell lysis and luciferase activity measurements were performed using a Dual Luciferase Activity Assay Kit (Promega). For statistical evaluation of reporter gene assays, a one-tailed paired Student’s t-test was used. All activity measurements were performed at least three times in independent experiments.

[4] = tested on: Hh pathway, Sufu −/− MEFs with SUFU-Δ; assay: Hh pathway reactivation in Sufu −/− MEFs expressing SUFU-Δ; format: cell-based, mouse; settings: 48–72 h, luciferase
Protocol: as §2

[5] = tested on: Hh pathway, Sufu −/− MEFs with SUFU-SH; assay: Hh pathway reactivation in Sufu −/− MEFs expressing SUFU-SH; format: cell-based, mouse; settings: 48–72 h, luciferase
Protocol: as §2

[6] = tested on: Hh pathway, Sufu −/− MEFs with SUFU-IDRfly; assay: Hh pathway reactivation in Sufu −/− MEFs expressing SUFU-IDRfly; format: cell-based, mouse; settings: SAG 100–200 nM, 48–72 h, luciferase
Protocol: as §2

[7] = purmorphamine 10 µM, p ≤ 0.05, n = 5

T1 sequence (Q9UMX1 32-483, other chains not shown): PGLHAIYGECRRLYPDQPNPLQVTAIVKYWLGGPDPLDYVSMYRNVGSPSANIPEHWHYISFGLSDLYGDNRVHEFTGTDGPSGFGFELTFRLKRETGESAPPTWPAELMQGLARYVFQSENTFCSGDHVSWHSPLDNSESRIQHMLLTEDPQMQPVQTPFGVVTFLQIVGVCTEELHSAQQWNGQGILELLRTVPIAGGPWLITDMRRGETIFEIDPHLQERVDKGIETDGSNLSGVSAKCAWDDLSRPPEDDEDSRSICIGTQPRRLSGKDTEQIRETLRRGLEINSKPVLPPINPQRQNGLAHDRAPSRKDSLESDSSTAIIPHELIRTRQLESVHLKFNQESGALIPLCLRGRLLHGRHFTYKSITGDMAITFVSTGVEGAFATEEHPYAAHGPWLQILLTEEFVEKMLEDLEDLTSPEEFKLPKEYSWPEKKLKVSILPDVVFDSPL
T2 sequence (Q9UMX1 with tags, fused parts or gaps S279P/R280S/P281R/P282G/DEL285-359/L360P limits assumed, other chains not shown): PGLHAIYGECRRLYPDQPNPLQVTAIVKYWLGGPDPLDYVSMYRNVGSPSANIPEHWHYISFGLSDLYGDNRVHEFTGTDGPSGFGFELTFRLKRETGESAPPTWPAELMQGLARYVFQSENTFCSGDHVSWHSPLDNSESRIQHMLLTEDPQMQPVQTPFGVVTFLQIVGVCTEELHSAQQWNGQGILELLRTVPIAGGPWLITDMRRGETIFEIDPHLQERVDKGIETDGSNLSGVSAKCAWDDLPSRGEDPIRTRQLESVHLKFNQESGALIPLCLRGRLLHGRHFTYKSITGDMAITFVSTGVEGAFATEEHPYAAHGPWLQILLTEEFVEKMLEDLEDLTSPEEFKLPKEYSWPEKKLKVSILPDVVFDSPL

Q: Which “protection of MBP-SUFU-FL from deuteration (HDX)” value (MBP-SUFU-FL [1]; Gli3p 5.5-fold excess, 1 h pre-incubation, 300, 600 and 1800 s exchange at 4°C, in triplicate, LC-MS) does the source give for “GLI3p: corresponding peptide from human GLI3; residues 328–344 (SSASGSYGHLSASAISP)” here?
A: more protected from exchange in the presence of the peptide

Q: Which “thermophoretic movement of the peptide on binding” value (shortened to “thermophoretic movement”) (MBP-SUFU-FL [2]) does the source give for `CC[C@H](C)[C@H](NC(=O)[C@H](CO)NC(=O)[C@H](CC(C)C)NC(=O)[C@H](Cc1c[nH]cn1)NC(=O)CNC(=O)[C@H](Cc1ccc(O)cc1)NC(=O)[C@H](CO)NC(=O)CNC(=O)CNC(=O)[C@@H]1CCCN1C(=O)[C@H](CO)NC(=O)[C@@H](NC(=O)c1ccc2c(c1)C(=O)OC21c2ccc(O)cc2Oc2cc(O)ccc21)[C@@H](C)O)C(=O)NCC(=O)N[C@H](C(=O)N[C@@H](CCSC)C(=O)N[C@@H](CO)C(=O)N1CCC[C@H]1C(=O)O)[C@@H](C)O` [FAM-GLI1p] (5FAM-TSPGGSYGHLSIGTMSP-OH; C-terminus assumed) here?
A: increased the rate of movement in the thermophoretic gradient

Q: And the “thermophoretic movement” value (MBP-SUFU-Δ)?
A: decreased it

Q: And the “thermophoretic movement” value (MBP-SUFU-SH)?
A: decreased it

Q: How did the pathway reactivation ([3]; SAG 100–200 nM) turn out when `CNC1CCC(N(Cc2cccc(-c3ccncc3)c2)C(=O)c2sc3ccccc3c2Cl)CC1` (stereo not shown) [SAG] was run?
A: overrode repression by the full-length protein

Q: And the pathway reactivation ([4]; SAG 100–200 nM, p ≤ 0.005, n = 10)?
A: failed to reactivate the pathway

Q: And the pathway reactivation ([5]; SAG 100–200 nM, p ≤ 0.01, n = 4)?
A: failed to reactivate the pathway

Q: What about the pathway reactivation [6] of the same compound?
A: repression could not be relieved

Q: How did the “protection of MBP-SUFU-FL from deuteration (HDX)” value (MBP-SUFU-FL [1]; GLI3 peptide that terminates at His336, data not shown) turn out when “GLI3p-SHC: GLI3 peptide that terminates at His336; residues 328–336 (SSASGSYGH)” was run?
A: unable to protect MBP-SUFU-FL from deuteration

Q: How did the pathway reactivation [3, 7] turn out when `c1ccc2c(Oc3nc(Nc4ccc(N5CCOCC5)cc4)c4ncn(C5CCCCC5)c4n3)cccc2c1` [Purmorphamine] was run?
A: the same disparate effects on SUFU-FL and SUFU-Δ repressive function

Q: And the pathway reactivation [4, 7]?
A: the same disparate effects on SUFU-FL and SUFU-Δ repressive function

Q: What about the pathway reactivation ([4]; purmorphamine 10 µM, p ≤ 0.05, n = 5, listed as purmorphamine) of the same compound?
A: Lack of Hh pathway reactivation

Q: What about the pathway reactivation ([5]; purmorphamine 10 µM) of the same compound?
A: Lack of Hh pathway reactivation

Source: publication PMC3852661, “Structural basis of SUFU–GLI interaction in human Hedgehog signalling regulation” (Acta Crystallographica Section D: Biological Crystallography, 2013)
